Measurements from US20080021026A1, “BENZOTHIOPHENE INHIBITORS OF RHO KINASE” (priority 2006, published 2008).
Read-outs that look alike come from different tables or passages of the source.

Key:
[1] = target: T1, recombinant N-terminal GST-tagged human Rho kinase 1 (ROCK1, amino acids 1-535) (Homo sapiens, UniProt Q13464); assay: In vitro Rho kinase assay (luciferase-based ATP consumption), ROCK1; assay type: biochemical
T1 construct: ROCK1, amino acids 1-535; purchased Invitrogen Inc. PV-3691
Method in brief: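 ATP depletion measured by firefly luciferase luminescence after 2 h at 30 °C, with inhibition raising signal and activity expressed relative to H-1152P. Reaction: 0.82 μg/ml recombinant GST-tagged ROCK1 (aa 1-535), S6 peptide 100 μg/ml, […], pH 7.5 Tris buffer.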

[2] = target: T2, recombinant N-terminal GST-tagged human Rho kinase 2 (ROCK2, amino acids 1-552) (Homo sapiens, UniProt O75116); assay: In vitro Rho kinase assay (luciferase-based ATP consumption), ROCK2; assay type: biochemical
T2 construct: ROCK2, amino acids 1-552; purchased Invitrogen Inc. PV3759
T2 sequence (O75116 1-552): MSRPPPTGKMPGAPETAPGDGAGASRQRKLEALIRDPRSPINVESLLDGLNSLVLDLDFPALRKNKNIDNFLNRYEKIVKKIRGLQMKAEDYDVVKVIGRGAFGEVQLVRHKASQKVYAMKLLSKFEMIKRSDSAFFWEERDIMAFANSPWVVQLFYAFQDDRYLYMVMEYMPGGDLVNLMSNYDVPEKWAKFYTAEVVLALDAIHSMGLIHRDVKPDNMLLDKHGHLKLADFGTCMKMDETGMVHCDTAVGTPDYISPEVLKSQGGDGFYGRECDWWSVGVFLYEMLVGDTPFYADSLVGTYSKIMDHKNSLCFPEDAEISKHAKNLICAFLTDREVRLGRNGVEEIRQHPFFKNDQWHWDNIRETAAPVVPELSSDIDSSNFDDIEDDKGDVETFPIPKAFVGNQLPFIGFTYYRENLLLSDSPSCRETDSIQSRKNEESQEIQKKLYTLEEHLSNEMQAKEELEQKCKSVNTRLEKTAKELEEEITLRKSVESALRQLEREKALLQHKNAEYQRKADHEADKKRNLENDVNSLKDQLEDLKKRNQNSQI
Method in brief: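 Luciferase-based luminescence of leftover ATP after 2 h at 30 °C, where inhibition raises signal, reports activity of GST-tagged ROCK2 (aa 1-552) at 0.82 μg/ml. Conditions: S6 peptide 100 μg/ml, […], pH 7.5 Tris buffer. Results given as percent of H-1152P control activity.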

[3] = recombinant GST-tagged human ROCK1, luciferase-based ATP consumption, read-out: ROCK1 IC50
[4] = recombinant GST-tagged human ROCK2, luciferase-based ATP consumption, read-out: ROCK2 IC50
[5] = ROCK1 IC50, recombinant GST-tagged human ROCK1, luciferase-based ATP consumption
[6] = ROCK2 IC50, recombinant GST-tagged human ROCK2, luciferase-based ATP consumption

T1 sequence (Q13464 1-535): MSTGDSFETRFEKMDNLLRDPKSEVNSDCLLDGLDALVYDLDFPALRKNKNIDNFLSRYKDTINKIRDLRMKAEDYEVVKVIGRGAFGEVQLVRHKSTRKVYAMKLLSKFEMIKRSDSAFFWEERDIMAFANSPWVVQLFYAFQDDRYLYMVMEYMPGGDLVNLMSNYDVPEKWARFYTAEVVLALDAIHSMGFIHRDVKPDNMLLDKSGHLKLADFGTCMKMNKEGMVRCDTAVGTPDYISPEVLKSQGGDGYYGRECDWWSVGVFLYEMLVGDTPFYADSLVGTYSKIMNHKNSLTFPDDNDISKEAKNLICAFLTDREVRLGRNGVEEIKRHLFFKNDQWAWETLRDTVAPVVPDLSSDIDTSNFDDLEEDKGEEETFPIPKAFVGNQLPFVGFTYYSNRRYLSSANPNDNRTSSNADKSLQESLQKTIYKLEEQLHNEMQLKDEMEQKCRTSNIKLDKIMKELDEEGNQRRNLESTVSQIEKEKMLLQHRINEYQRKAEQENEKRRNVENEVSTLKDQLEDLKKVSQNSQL

| Compound | IC50 [1, 3] | IC50 [2, 4] | IC50 [1, 5] | IC50 [2, 6] |
| --- | --- | --- | --- | --- |
| Cc1c(-c2ccnc(N)n2)sc2ccc(CNC(=O)CCc3nc4ccccc4[nH]3)cc12 [Example 244, Cc1c(sc2ccc(CNC(═O)CCc3nc4ccccc4[nH]3)cc12)-c5ccnc(N)n5] | < 5 µM | < 5 µM |  |  |
| Cc1c(-c2ccnc(N)n2)sc2ccc(CNC(=O)c3cccc(Cl)c3Cl)cc12 [Example 245, Cc1c(sc2ccc(CNC(═O)c3cccc(Cl)c3Cl)cc12)-c4ccnc(N)n4] |  |  | > 5 µM | < 5 µM |
| Cc1c(-c2ccnc(N)n2)sc2ccc(CNC(=O)c3ccc(Cl)cc3Cl)cc12 [Example 246, Cc1c(sc2ccc(CNC(═O)c3ccc(Cl)cc3Cl)cc12)-c4ccnc(N)n4] |  |  | < 5 µM | < 5 µM |
| Cc1c(-c2ccnc(N)n2)sc2ccc(CNC(=O)c3cc(Cl)ccc3Cl)cc12 [Example 247, Cc1c(sc2ccc(CNC(═O)c3cc(Cl)ccc3Cl)cc12)-c4ccnc(N)n4] |  |  | < 5 µM | < 5 µM |
| Cc1c(-c2ccnc(N)n2)sc2ccc(CNC(=O)c3cc(F)c(F)c(O)c3F)cc12 [Example 248, Cc1c(sc2ccc(CNC(═O)c3cc(F)c(F)c(O)c3F)cc12)-c4ccnc(N)n4] | < 5 µM | < 5 µM |  |  |
| Cc1c(-c2ccnc(N)n2)sc2ccc(CNC(=O)C=Cc3ccc4c(c3)OCO4)cc12 [Example 249, Cc1c(sc2ccc(CNC(═O)C═Cc3ccc4OCOc4c3)cc12)-c5ccnc(N)n5] | > 5 µM | < 5 µM |  |  |
| Cc1ccc(C(=O)CCC(=O)NCc2ccc3sc(-c4ccnc(N)n4)c(C)c3c2)cc1 [Example 250, Cc1ccc(cc1)C(═O)CCC(═O)NCc2ccc3sc(c(C)c3c2)-c4ccnc(N)n4] | > 5 µM | < 5 µM |  |  |
| CCCCCc1ccc(C(=O)NCc2ccc3sc(-c4ccnc(N)n4)c(C)c3c2)cc1 [Example 251, CCCCCc1ccc(cc1)C(═O)NCc2ccc3sc(c(C)c3c2)-c4ccnc(N)n4] | < 5 µM | > 5 µM |  |  |
| Cc1c(-c2ccnc(N)n2)sc2ccc(CNC(=O)c3cc(F)c(F)cc3Cl)cc12 [Example 252, Cc1c(sc2ccc(CNC(═O)c3cc(F)c(F)cc3Cl)cc12)-c4ccnc(N)n4] |  |  | < 5 µM | < 5 µM |
| Cc1c(-c2ccnc(N)n2)sc2ccc(CNC(=O)c3cc(F)c(Cl)cc3F)cc12 [Example 253, Cc1c(sc2ccc(CNC(═O)c3cc(F)c(Cl)cc3F)cc12)-c4ccnc(N)n4] | < 5 µM | < 5 µM |  |  |
| CCN(CC)c1ccc(C(=O)NCc2ccc3sc(-c4ccnc(N)n4)c(C)c3c2)cc1 [Example 254, CCN(CC)c1ccc(cc1)C(═O)NCc2ccc3sc(c(C)c3c2)-c4ccnc(N)n4] | > 5 µM | < 5 µM |  |  |
| COc1cc(C=CC(=O)NCc2ccc3sc(-c4ccnc(N)n4)c(C)c3c2)ccc1O [Example 255, COc1cc(C═CC(═O)NCc2ccc3sc(c(C)c3c2)-c4ccnc(N)n4)ccc1O] | < 5 µM | < 5 µM |  |  |
| COc1ccc(C=CC(=O)NCc2ccc3sc(-c4ccnc(N)n4)c(C)c3c2)cc1O [Example 256, COc1ccc(C═CC(═O)NCc2ccc3sc(c(C)c3c2)-c4ccnc(N)n4)cc1O] | < 5 µM | < 5 µM |  |  |
| CCCCOc1ccc(C(=O)NCc2ccc3sc(-c4ccnc(N)n4)c(C)c3c2)cc1 [Example 257, CCCCOc1ccc(cc1)C(═O)NCc2ccc3sc(c(C)c3c2)-c4ccnc(N)n4] | > 5 µM | > 5 µM |  |  |
| Cc1c(-c2ccnc(N)n2)sc2ccc(CNC(=O)c3cc4cc(Cl)ccc4o3)cc12 [Example 258, Cc1c(sc2ccc(CNC(═O)c3cc4cc(Cl)ccc4o3)cc12)-c5ccnc(N)n5] | < 5 µM | < 5 µM |  |  |
| COc1ccc([N+](=O)[O-])c(C(=O)NCc2ccc3sc(-c4ccnc(N)n4)c(C)c3c2)c1 [Example 259, COc1ccc(c(c1)C(═O)NCc2ccc3sc(c(C)c3c2)-c4ccnc(N)n4)[N+]([O−])═O] | < 5 µM | < 5 µM |  |  |
| COc1cc(C(=O)NCc2ccc3sc(-c4ccnc(N)n4)c(C)c3c2)cc(OC)c1O [Example 260, COc1cc(cc(OC)c1O)C(═O)NCc2ccc3sc(c(C)c3c2)-c4ccnc(N)n4] | > 5 µM | < 5 µM |  |  |
| Cc1c(-c2ccnc(N)n2)sc2ccc(CNC(=O)c3ccccc3-c3ccccc3)cc12 [Example 261, Cc1c(sc2ccc(CNC(═O)c3ccccc3-c4ccccc4)cc12)-c5ccnc(N)n5] | > 5 µM | < 5 µM |  |  |
| Cc1c(-c2ccnc(N)n2)sc2ccc(CNC(=O)c3cccc(Br)c3)cc12 [Example 262, Cc1c(sc2ccc(CNC(═O)c3cccc(Br)c3)cc12)-c4ccnc(N)n4] | > 5 µM | < 5 µM |  |  |

| Compound | IC50 [1, 3] | IC50 [2, 4] | IC50 [1, 5] | IC50 [2, 6] |
| --- | --- | --- | --- | --- |
| Cc1c(-c2ccnc(N)n2)sc2ccc(CNC(=O)c3ccc(Br)cc3)cc12 [Example 263, Cc1c(sc2ccc(CNC(═O)c3ccc(Br)cc3)cc12)-c4ccnc(N)n4] | > 5 µM | < 5 µM |  |  |
| Cc1c(-c2ccnc(N)n2)sc2ccc(CNC(=O)c3cccc(Cl)c3[N+](=O)[O-])cc12 [Example 264, Cc1c(sc2ccc(CNC(═O)c3cccc(Cl)c3[N+]([O−])═O)cc12)-c4ccnc(N)n4] | > 5 µM | < 5 µM |  |  |
| Cc1c(-c2ccnc(N)n2)sc2ccc(CNC(=O)c3cc([N+](=O)[O-])ccc3Cl)cc12 [Example 265, Cc1c(sc2ccc(CNC(═O)c3cc(ccc3Cl)[N+]([O−])═O)cc12)-c4ccnc(N)n4] |  |  | > 5 µM | < 5 µM |
| Cc1c(-c2ccnc(N)n2)sc2ccc(CNC(=O)c3ccc([N+](=O)[O-])cc3Cl)cc12 [Example 266, Cc1c(sc2ccc(CNC(═O)c3ccc(cc3Cl)[N+]([O−])═O)cc12)-c4ccnc(N)n4] |  |  | > 5 µM | < 5 µM |
| Cc1c(-c2ccnc(N)n2)sc2ccc(CNC(=O)c3ccc(Cl)cc3[N+](=O)[O-])cc12 [Example 267, Cc1c(sc2ccc(CNC(═O)c3ccc(Cl)cc3[N+]([O−])═O)cc12)-c4ccnc(N)n4] | > 5 µM | < 5 µM |  |  |
| Cc1c(-c2ccnc(N)n2)sc2ccc(CNC(=O)c3ccc(Cl)c([N+](=O)[O-])c3)cc12 [Example 268, Cc1c(sc2ccc(CNC(═O)c3ccc(Cl)c(c3)[N+]([O−])═O)cc12)-c4ccnc(N)n4] | > 5 µM | < 5 µM |  |  |
| Cc1c(-c2ccnc(N)n2)sc2ccc(CNC(=O)c3cc(Cl)ccc3[N+](=O)[O-])cc12 [Example 269, Cc1c(sc2ccc(CNC(═O)c3cc(Cl)ccc3[N+]([O−])═O)cc12)-c4ccnc(N)n4] | < 5 µM | < 5 µM |  |  |
| Cc1c(-c2ccnc(N)n2)sc2ccc(CNC(=O)c3cccc(Br)n3)cc12 [Example 270, Cc1c(sc2ccc(CNC(═O)c3cccc(Br)n3)cc12)-c4ccnc(N)n4] | < 5 µM | < 5 µM |  |  |
| Cc1c(-c2ccnc(N)n2)sc2ccc(CNC(=O)c3cncc(Br)c3)cc12 [Example 271, Cc1c(sc2ccc(CNC(═O)c3cncc(Br)c3)cc12)-c4ccnc(N)n4] | > 5 µM | < 5 µM |  |  |
| Cc1c(-c2ccnc(N)n2)sc2ccc(CNC(=O)c3cc(F)c(F)cc3[N+](=O)[O-])cc12 [Example 272, Cc1c(sc2ccc(CNC(═O)c3cc(F)c(F)cc3[N+]([O−])═O)cc12)-c4ccnc(N)n4] | > 5 µM | < 5 µM |  |  |
| Cc1c(-c2ccnc(N)n2)sc2ccc(CNC(=O)Cc3ccc(C(F)(F)F)cc3)cc12 [Example 273, Cc1c(sc2ccc(CNC(═O)Cc3ccc(cc3)C(F)(F)F)cc12)-c4ccnc(N)n4] | < 5 µM | < 5 µM |  |  |
| Cc1c(-c2ccnc(N)n2)sc2ccc(CNC(=O)C(C)c3ccc(CC(C)C)cc3)cc12 (stereo not shown) [Example 274, CC(C)Cc1ccc(cc1)C(C)C(═O)NCc2ccc3sc(c(C)c3c2)-c4ccnc(N)n4] | > 5 µM | > 5 µM |  |  |
| Cc1c(-c2ccnc(N)n2)sc2ccc(CNC(=O)c3cc(Cl)c(O)c(Cl)c3)cc12 [Example 275, Cc1c(sc2ccc(CNC(═O)c3cc(Cl)c(O)c(Cl)c3)cc12)-c4ccnc(N)n4] | < 5 µM | > 5 µM |  |  |
| Cc1c(-c2ccnc(N)n2)sc2ccc(CNC(=O)c3c(F)c(F)c(F)c(F)c3F)cc12 [Example 276, Cc1c(sc2ccc(CNC(═O)c3c(F)c(F)c(F)c(F)c3F)cc12)-c4ccnc(N)n4] | < 5 µM | < 5 µM |  |  |
| COc1cc(OC)c(C(=O)NCc2ccc3sc(-c4ccnc(N)n4)c(C)c3c2)c(OC)c1 [Example 277, COc1cc(OC)c(C(═O)NCc2ccc3sc(c(C)c3c2)-c4ccnc(N)n4)c(OC)c1] | < 5 µM | < 5 µM |  |  |
| COc1cc(OC)c(C(=O)NCc2ccc3sc(-c4ccnc(N)n4)c(C)c3c2)cc1OC [Example 278, COc1cc(OC)c(cc1OC)C(═O)NCc2ccc3sc(c(C)c3c2)-c4ccnc(N)n4] | < 5 µM | < 5 µM |  |  |
| COc1cc(C(=O)NCc2ccc3sc(-c4ccnc(N)n4)c(C)c3c2)cc(OC)c1OC [Example 279, COc1cc(cc(OC)c1OC)C(═O)NCc2ccc3sc(c(C)c3c2)-c4ccnc(N)n4] | > 5 µM | < 5 µM |  |  |
| COc1ccc(C(=O)NCc2ccc3sc(-c4ccnc(N)n4)c(C)c3c2)c(OC)c1OC [Example 280, COc1ccc(C(═O)NCc2ccc3sc(c(C)c3c2)-c4ccnc(N)n4)c(OC)c1OC] | > 5 µM | < 5 µM |  |  |
| Cc1c(-c2ccnc(N)n2)sc2ccc(CNC(=O)c3ccccc3Cc3ccccc3)cc12 [Example 281, Cc1c(sc2ccc(CNC(═O)c3ccccc3Cc4ccccc4)cc12)-c5ccnc(N)n5] | > 5 µM | < 5 µM |  |  |
